Test results from patent US20160074405A1, “COMPOSITIONS AND METHODS FOR THE TREATMENT OF DRUG-INDUCED HAND-FOOT SYNDROME” (Duke University, priority 2009, published 2016).
Values belong to the compound of their own block, whether it stands above or below them.

How the values were obtained:
[1] = Topical sildenafil treatment of patients with drug-induced PPE (case reports); type: in vivo, human
Method: Four patients were treated with topical sildenafil for PPE, two with PPE related to capecitabine and two with PPE related to sunitinib. […] This initial clinical experience was outside the context of formal clinical trials, since no such trials were available.
(§1) The first patient had both metastatic pancreatic cancer and a history of mild Raynaud's syndrome.
Administration of 5FU was held due to the severity and persistence of the hand-foot syndrome. Topical sildenafil was applied to only the left hand.
(§2) The third patient was a person with a gastro-intestinal stromal tumor (GIST) refractory to imatinib, who was being treated with sunitinib. […] They were treated with topical 2% sildenafil three times daily. To ensure activity in the setting of potentially significant costs for custom formulation, this patient applied topical sildenafil to only their left hand. […] This patient later was dosed with 1% topical sildenafil once per week. In addition, this patient experienced sunitinib-induced gastrointestinal toxicities (enteritis, diarrhea), which were treated with oral sildenafil to allow systemic absorption. The initial dose was 50 mg oral sildenafil daily. […] Thereafter lower doses were used on an as needed basis, including a quarter tablet (50 mg size) given once or twice per week.
(§3) A fourth patient was a person with metastatic angiosarcoma, who was treated with sunitinib for over four years.

[2] = Side effects of sildenafil treatment in the PPE patients; type: in vivo, human
Method: The third patient was a person with a gastro-intestinal stromal tumor (GIST) refractory to imatinib, who was being treated with sunitinib. Despite a gratifying response to sunitinib, they experienced grade 3 sunitinib-related PPE that required frequent dose holding and reduction. They were treated with topical 2% sildenafil three times daily. To ensure activity in the setting of potentially significant costs for custom formulation, this patient applied topical sildenafil to only their left hand. […] After only 3 doses (1 day) they noticed an improvement on the tenderness and redness of their hands. […] The improvement was “like day and night.” The right hand had all of these complications. These were severe enough that the patient had difficulty physically closing their hand more than halfway due to skin thickening as well as pain. Their left hand was completely flexible. After administration to both hands, they were able for the first time in many months to shake hands and make a first without difficulty or pain and they restarted playing their guitar in their church choir. This patient later was dosed with 1% topical sildenafil once per week. In addition, this patient experienced sunitinib-induced gastrointestinal toxicities (enteritis, diarrhea), which were treated with oral sildenafil to allow systemic absorption. The initial dose was 50 mg oral sildenafil daily. […] Thereafter lower doses were used on an as needed basis, including a quarter tablet (50 mg size) given once or twice per week.
Since each of these patients initially had only one affected skin region treated, followed by treatment of the other similarly affected regions, each patient was able to serve as her/his own control.

[3] = Oral sildenafil treatment of sunitinib-induced gastrointestinal toxicities and hand-foot syndrome (case report); type: in vivo, human; conditions: third patient; 50 mg oral sildenafil daily
Method: as §2

[4] = PPE grade observed in the treated patients under anti-cancer drug; type: in vivo, human; conditions: individual patient before sildenafil
Method: as §1, §2, §3

[5] = patients treated with the agent; cited from earlier work

SMILES: CCCc1nn(C)c2c(=O)[nH]c(-c3cc(S(=O)(=O)N4CCN(C)CC4)ccc3OCC)nc12 [sildenafil]
- patient's pain and size and depth of the digital ulcers ([1]; first patient (capecitabine, Raynaud's), topical 2% applied to ulcers, within a week): marked improvement
- PPE of the treated palm ([1]; first patient, topical, full palm of one hand): significant improvement
- PPE of treated right hand and foot ([1]; fourth patient (sunitinib 37.5 mg per day, grade 1 at start), topical 2% in cold cream base): improved markedly
- time to marked improvement of treated right hand and foot ([1]; fourth patient, topical 2% in cold cream base): 1-2 weeks
- pain and redness of the left hand ([1]; second patient (capecitabine/5FU regimens), topical to left hand only, by day 8): improvement
- hand-foot syndrome in both hands ([1]; second patient, by day 72): resolved
- tenderness and redness of hands ([1]; third patient (sunitinib, grade 3 PPE), topical 2% three times daily, left hand, after 3 doses (1 day)): improvement
- multiple blisters, cracks, and callousness ([1]; third patient, topical 2% three times daily, after 4 weeks): resolved essentially completely
- pain, redness and blisters ([1]; third patient, topical 2% three times daily, by one week): markedly improved
- PPE-related symptoms ([1]; topical sildenafil, patients with capecitabine- or sunitinib-related PPE): significantly improved
- adverse impact on cancer's response to treatment ([2]; all treated patients): no patient had any suggestion of an adverse impact
- local or systemic side effects ([2]; all treated patients): No local or systemic side effects
- side effects such as headache, chest pain, lightheadedness, spontaneous erections ([2]; third patient, topical 2% three times daily, month of treatment): no side effects
- gastrointestinal toxicities and hand-foot syndrome [3]: rapidly improved
- time to improvement of gastrointestinal toxicities and hand-foot syndrome [3]: ≤ 1 days

- PPE grade under anti-cancer treatment [4]: 3 grade
SMILES: CCN(CC)CCNC(=O)c1c(C)[nH]c(/C=C2\C(=O)Nc3ccc(F)cc32)c1C [sunitinib]
- frequency of any grade (grade 1-3) PPE [5]: up to 21%
- frequency of severe (grade 3) PPE [5]: up to 5%

- PPE grade under anti-cancer treatment [4]: 2-3 grade
SMILES: CCCCCOC(=O)Nc1nc(=O)n([C@@H]2O[C@H](C)[C@@H](O)[C@H]2O)cc1F [capecitabine]
- frequency of any grade (grade 1-3) PPE [5]: ≤ 54%
- frequency of severe (grade 3) PPE [5]: ≤ 17%

SMILES: CNC(=O)c1cc(Oc2ccc(NC(=O)Nc3ccc(Cl)c(C(F)(F)F)c3)cc2)ccn1 [sorafenib]
- frequency of any grade (grade 1-3) PPE [5]: ≤ 30%
- frequency of severe (grade 3) PPE [5]: ≤ 8%
